Assay results published in US20240368133A1, “Compounds for the Treatment of Pain, in Particular, Neuropathic Pain, and/or Other Diseases or Disorders that are Associated with AT2R and/or AT2R Mediated Signaling” (Confo Therapeutics N.V., priority 2021, published 2024).
Structures can show the parent of a compound that is named as a salt.

molecular target: human AT2R fused to Cb23 (Homo sapiens, UniProt P50052); assay: Radioligand binding assay, displacement of 125I-[Sar1, Ile8]-Angiotensin II, hAT2R Cb23; conditions: not given
Sequence (P50052 whole entry, looked up, the tested form may be a part): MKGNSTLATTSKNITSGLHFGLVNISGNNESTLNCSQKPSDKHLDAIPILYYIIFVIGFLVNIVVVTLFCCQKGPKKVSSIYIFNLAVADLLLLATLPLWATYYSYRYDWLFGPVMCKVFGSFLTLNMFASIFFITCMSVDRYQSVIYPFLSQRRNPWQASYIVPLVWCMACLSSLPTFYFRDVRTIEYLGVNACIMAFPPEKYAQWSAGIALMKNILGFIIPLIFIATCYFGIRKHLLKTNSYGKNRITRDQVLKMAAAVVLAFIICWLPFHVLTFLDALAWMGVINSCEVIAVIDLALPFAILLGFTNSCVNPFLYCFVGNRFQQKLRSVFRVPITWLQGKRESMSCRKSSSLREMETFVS
Protocol: (§1) All synthesized ligands were evaluated in a radioligand assay by displacing ^125I-[Sar1, Ile8]-Angiotensin II (Perkin Elmer, NEX248050UC) from human AT2R fused to Cb23 or human/rodent/cynomolgus/minipig/dog WT AT2R in HEK-293 cells membrane preparations, using C21 (Vicore Pharma) and Angiotensin II (endogenous ligand) as reference. The affinity was determined using an eight-point dose-response curve, each point performed in duplicates. The compounds were also evaluated in a counterscreen binding assay for displacement of ^125I-[Sar1, Ile8]-Angiotensin II binding to human AT1R in HEK-293 cell membranes. For AT1R, the percent displacement was determined at 1 μM and […] (in duplicates) or using an eight-point dose-response curve, each point performed in duplicates with Candesartan and Losartan used as reference.
(§2) For the AT2R/AT1R binding assays, cell membranes, expressing AT2R_Cb23, AT2R or AT1R, were incubated with 0.05 nM ^125I-[Sarl, Ile8]-Ang II. The ligand competition assay was performed in a total volume of 100 μL assay buffer (50 mM Tris, 5 mM MgCl2, 1 mM EDTA, 0.1% BSA, pH 7.4), at concentrations ranging from […] to 10 μM. For each experiment, each ligand concentration was tested in duplicate. Non-specific binding (NSB) was determined by the inclusion of 10 μM unlabeled [Sarl]-Ang II (Sigma Aldrich). The reaction was initiated by the addition of radioligand, after which the plates were incubated at 25° C. for one hour. The reaction was terminated by rapid filtration using a vacuum harvester, applying six washes with 100 μL of ice-cold wash buffer (50 mM Tris.HCl, pH 7.4). The filter plates GF/C (Perkin Elmer) were pre-soaked in 0.5% PEI. The residual amount of radioactivity was determined via liquid scintillation counting. IC50 values, representing the concentration at which each ligand displaced 50% of ^125I-[Sarl, Ile8]-Ang II, were calculated using GraphPad Prism 7.02 by applying a Non-linear regression equation (variable slope, four parameters) on the data. The obtained values serve as affinity estimates for each ligand and their ability to compete against the radioligand for binding with AT2R or AT1R, respectively.

Row | SMILES | IC50 [µM]
1 | c1ccc2sc(CN3CCN(c4cc(NC5CC5)ccc4-c4nn[nH]n4)CC3)nc2c1 [Compound A-61, 3-[4-(1,3-benzothi-azol-2-ylmethyl)-piperazin-1-yl]-N-cyclopropyl-4-(2H-tetrazol-5-yl)aniline hydrochloride] | 14.7

same assay, conditions: displacement of 125I-[Sar1, Ile8]-Angiotensin II, human AT2R fused to Cb23, HEK-293 cell membrane preparations; read-out: Binding affinity on hAT2R_Cb23 IC50

Row | SMILES | IC50 [µM]
2 | O=C(O)c1ccccc1CN1CCN(c2nc3ccccc3s2)CC1 [Compound A-01, 2-[[4-(1,3-benzothiazol-2-yl)piperazin-1-yl]methyl]benzoic acid] | 33.6
3 | CCS(=O)(=O)NC(=O)c1ccccc1N1CCN(Cc2nc3ccccc3s2)CC1 [Compound A-04, 2-[4-(1,3-benzothiazol-2-ylmethyl)piperazin-1-yl]-N-ethylsulfonyl-benzamide] | 22.8
4 | O=[N+]([O-])c1ccc2nc(N3CCN(Cc4ccccc4-c4nn[nH]n4)CC3)sc2c1 [Compound A-07, 6-nitro-2-[4-[[2-(2H-tetrazol-5-yl)-phenyl]methyl]-piperazin-1-yl]-1,3-benzothiazole] | 28.8
5 | Cn1c(CN2CCN(c3ccccc3-c3nn[nH]n3)CC2)nc2ccccc21 [Compound A-15] | 42.9
6 | Cc1ccc(-c2nn[nH]n2)c(N2CCN(Cc3nc4ccccc4n3C)CC2)c1 [Compound A-16, 1-methyl-2-[[4-[5-methyl-2-(2H-tetrazol-5-yl)phen-yl]piperazin-1-yl]-methyl]benzimid-azole] | 21.7
7 | O=c1[nH]c(CN2CCN(c3ccccc3-c3nn[nH]n3)CC2)nc2ccccc12 [Compound A-26, 2-[[4-[2-(2H-tetrazol-5-yl)phen-yl]piperazin-1-yl]-methyl]-3H-quin-azolin-4-one] | 111
8 | Cc1ccc(-c2nn[nH]n2)c(N2CCN(Cc3nc4ccccc4c(=O)[nH]3)CC2)c1 [Compound A-27, 2-[[4-[5-methyl-2-(2H-tetrazol-5-yl)-phenyl]piperazin-1-yl]methyl]-3H-quinazolin-4-one] | 35.9
9 | O=c1[nH]c(CN2CCN(c3cc(C(F)(F)F)ccc3-c3nn[nH]n3)CC2)nc2ccccc12 [Compound A-29, 2-[[4-[2-(2H-tetrazol-5-yl)-5-(trifluoromethyl)-phenyl]piperazin-1-yl]methyl]-3H-quinazolin-4-one] | 42.4
10 | CC(C)=Cc1ccc(-c2nn[nH]n2)c(N2CCN(Cc3nc4ccccc4c(=O)[nH]3)CC2)c1 [Compound A-30, 2-[[4-[5-(2-methyl-prop-1-enyl)-2-(2H-tetrazol-5-yl)-phenyl]piperazin-1-yl]methyl]-3H-quinazolin-4-one] | 114
11 | COCCOc1ccc(-c2nn[nH]n2)c(N2CCN(Cc3nc4ccccc4s3)CC2)c1 [Compound A-56, 2-[[4-[5-(2-meth-oxyethoxy)-2-(2H-tetrazol-5-yl)phen-yl]piperazin-1-yl]-methyl]-1,3-benzo-thiazole] | 61.7
12 | c1ccc2sc(CN3CCN(c4cc(OCC5COC5)ccc4-c4nn[nH]n4)CC3)nc2c1 [Compound A-58, 2-[[4-[5-(oxetan-3-ylmethoxy)-2-(2H-tetrazol-5-yl)phen-yl]piperazin-1-yl]-methyl]-1,3-benzo-thiazole] | 17.2
13 | COCCNc1ccc(-c2nn[nH]n2)c(N2CCN(Cc3nc4ccccc4s3)CC2)c1 [Compound A-63, 3-[4-(1,3-benzothi-azol-2-ylmethyl)-piperazin-1-yl]-N-(2-methoxyethyl)-4-(2H-tetrazol-5-yl)aniline] | 21.6
14 | CN1CCN(c2ccc(-c3nn[nH]n3)c(N3CCN(Cc4nc5ccccc5s4)CC3)c2)CC1 [Compound A-66, 2-[[4-[5-(4-methyl-piperazin-1-yl)-2-(2H-tetrazol-5-yl)-phenyl]piperazin-1-yl]methyl]-1,3-benzothiazole] | 11.8
15 | CC(C)Cc1ccc(-c2nn[nH]n2)c(N2CCN(Cc3cc(=O)n4c(ccn4C)n3)CC2)c1 [Compound A-74, 5-[[4-[5-isobutyl-2-(2H-tetrazol-5-yl)-phenyl]piperazin-1-yl]methyl]-1-methyl-pyrazolo-[1,5-a]pyrimidin-7-one] | 11.7
16 | c1cnnc(CN2CCN(c3cc(C4CC4)ccc3-c3nn[nH]n3)CC2)c1 [Compound A-91, 3-[[4-[5-cyclopropyl-2-(2H-tetrazol-5-yl)phenyl]piperazin-1-yl]methyl]pyridazine] | 23.7
17 | Cc1nnc(CN2CCN(c3cc(CC(C)C)ccc3-c3nn[nH]n3)CC2)o1 [Compound A-92] | 15.6
18 | Cc1nc(=O)cc(CN2CCN(c3cc(CC(C)C)ccc3-c3nn[nH]n3)CC2)[nH]1 [Compound A-95, 6-[[4-[5-isobutyl-2-(2H-tetrazol-5-yl)phenyl]piperazin-1-yl]methyl]-2-methyl-1H-pyrimidin-4-one] | 43.3
19 | Cc1noc(CN2CCN(c3cc(CC(C)C)ccc3-c3nn[nH]n3)CC2)n1 [Compound A-96, 5-[[4-[5-isobutyl-2-(2H-tetrazol-5-yl)-phenyl]piperazin-1-yl]methyl]-3-methyl-1,2,4-oxa-diazole] | 13.2
20 | Cc1nccc(CN2CCN(c3cc(CC(C)C)ccc3-c3nn[nH]n3)CC2)n1 [Compound A-99] | 33.9
21 | Cc1cc(=O)nc(CN2CCN(c3cc(CC(C)C)ccc3-c3nn[nH]n3)CC2)[nH]1 [Compound A-100, 2-[[4-[5-isobutyl-2-(2H-tetrazol-5-yl)phenyl]piperazin-1-yl]methyl]-6-methyl-1H-pyrimidin-4-one] | 16.5
22 | Cc1ncc(CN2CCN(c3cc(CC(C)C)ccc3-c3nn[nH]n3)CC2)cn1 [Compound A-103, 5-[[4-[5-isobutyl-2-(2H-tetrazol-5-yl)-phenyl]piperazin-1-yl]methyl]-2-methyl-pyrimidine] | 12.2
23 | CC(C)Cc1ccc(-c2nn[nH]n2)c(N2CCN(Cc3cccc(C#N)n3)CC2)c1 [Compound A-107, 6-[[4-[5-isobutyl-2-(2H-tetrazol-5-yl)-phenyl]piperazin-1-yl]methyl]pyr-idine-2-carbonitrile] | 54.9
24 | CC(C)Cc1ccc(-c2nn[nH]n2)c(N2CCN(Cc3ncon3)CC2)c1 [Compound A-108, 3-[[4-[5-isobutyl-2-(2H-tetrazol-5-yl)-phenyl]piperazin-1-yl]methyl]-1,2,4-oxadiazole] | 41.7
25 | CC(C)Cc1ccc(-c2nn[nH]n2)c(N2CCN(Cc3cn(C)cn3)CC2)c1 [Compound A-109, 1-[5-isobutyl-2-(2H-tetrazol-5-yl)phen-yl]-4-[(1-methyl-imidazol-4-yl)meth-yl]piperazine] | 40.4
26 | CC(C)Cc1ccc(-c2nn[nH]n2)c(N2CCN(Cc3ccn(C)n3)CC2)c1 [Compound A-110, 1-[5-isobutyl-2-(2H-tetrazol-5-yl)phen-yl]-4-[(1-methyl-pyrazol-3-yl)meth-yl]piperazine] | 17.8
27 | Cc1ncc(CN2CCN(c3cc(CC(C)C)ccc3-c3nn[nH]n3)CC2)n1C [Compound A-114, 1-[(2,3-dimethyl-imidazol-4-yl)meth-yl]-4-[5-isobutyl-2-(2H-tetrazol-5-yl)-phenyl]piperazine] | 18.7
28 | COc1cc(N2CCN(Cc3nc4ccccc4s3)CC2)c(-c2nn[nH]n2)cc1F [Compound A-117, 2-[[4-[4-fluoro-5-methoxy-2-(2H-tetrazol-5-yl)phen-yl]piperazin-1-yl]-methyl]-1,3-benzo-thiazole] | 52.6

molecular target: human AT1R (Homo sapiens (Human), UniProt P30556); assay: Counterscreen radioligand binding assay, displacement of 125I-[Sar1, Ile8]-Angiotensin II, hAT1R WT; conditions: 125I-[Sar1, Ile8]-Ang II, compound at 1 μM, semi-quantitative score, read-out: % Displaced radioligand at 1 μM
Sequence (P30556 whole entry): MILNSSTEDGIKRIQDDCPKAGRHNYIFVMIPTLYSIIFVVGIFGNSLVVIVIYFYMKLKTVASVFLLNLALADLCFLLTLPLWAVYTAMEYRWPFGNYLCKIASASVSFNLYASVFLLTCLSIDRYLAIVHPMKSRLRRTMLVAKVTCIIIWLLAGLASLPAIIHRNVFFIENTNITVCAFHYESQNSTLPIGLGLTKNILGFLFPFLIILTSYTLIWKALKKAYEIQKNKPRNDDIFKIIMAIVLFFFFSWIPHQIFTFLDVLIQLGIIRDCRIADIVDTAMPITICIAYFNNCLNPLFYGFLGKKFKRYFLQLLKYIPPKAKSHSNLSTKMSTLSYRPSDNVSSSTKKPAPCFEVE
Protocol: as §1, §2

Row | SMILES | inhibition at 1 µM [%]
29 | c1ccc2sc(CN3CCN(c4cc(NCC5CC5)ccc4-c4nn[nH]n4)CC3)nc2c1 [Compound A-62, 3-[4-(1,3-benzothi-azol-2-ylmethyl)-piperazin-1-yl]-N-(cyclopropylmeth-yl)-4-(2H-tetrazol-5-yl)aniline] | < 30

same assay, conditions: 125I-[Sar1, Ile8]-Ang II, compound at 10 μM, semi-quantitative score, read-out: % Displaced radioligand at 10 μM

Row | SMILES | inhibition at 10 µM [%]
30 | c1ccc2sc(CN3CCN(c4cc(NCC5CC5)ccc4-c4nn[nH]n4)CC3)nc2c1 [Compound A-62, 3-[4-(1,3-benzothi-azol-2-ylmethyl)-piperazin-1-yl]-N-(cyclopropylmeth-yl)-4-(2H-tetrazol-5-yl)aniline] | < 30
